{"source": "patent US11944702B2", "about": "“Skin care composition and method of making a skin care composition” (L'OREAL, priority 2017, dated 2024)", "assay": "Stability of mixed skin care composition (base + booster compositions)", "assay_type": "physicochemical", "settings": "combination results in incompatible pH and separation of phases", "description": "Referring again to FIG. 2, after the ingredient is determined, a compatibility profile is determined corresponding to the previously selected ingredients (step 207). The compatibility profile includes an inclusion or exclusion of additional ingredients to the formulation. That is, the compatibility profile provides acceptable combinations of booster composition and base composition combinations made with the previously selected ingredients that forms stable and efficacious skin care compositions. […] “Stable”, “Stability” and grammatical variations thereof, indicate a macroscopic homogeneous substance that doesn't have variation in texture or varying phases physically noticeable. In addition, microscopically the emulsion of the composition has the appearance of being homogeneous with the droplets and no dynamic changes in the microscope image. […] In addition, compatibility may include ingredients that retain efficacy of individual ingredients when combined with the other ingredients remain present in the formula over time periods and exposures to varying temperature.\nExamples and comparative examples below are provided by the cosmetic dispending system as shown and described above. TABLE 3 includes the composition of Base B, the hydroalcoholic base, according to an embodiment of the disclosure."}
{"smiles": "CC1=C(/C=C/C(C)=C/C=C/C(C)=C/CO)C(C)(C)CCC1", "note": "[retinol]", "values": [{"measurement": "compatibility with hydroalcoholic base", "result": "not compatible"}]}
